The text below walks through data of patent US20200405752A1, “ANTITUMOR AGENT, ANTITUMOR EFFECT ENHANCER, AND ANTITUMOR KIT” (FUJIFILM Corporation, priority 2018, published 2020).

Like-named read-outs stand apart in the source and are kept apart here.

Experiment [1] concerns pancreatic cancer patient. The following applies: cited from earlier work.
The test system of experiment [2] is human breast cancer cell line HCC1954 (spheroid culture). Briefly: Cell viability (CellTiter Glo) of HCC1954 in spheroid culture in combination with cisplatin. Type of experiment: cell-based. The conditions noted are these: for CI / IC50: HCC1954 spheroid culture; for CI: combination with cisplatin; for viability at 0.001 µM / viability at 0.003 µM / viability at 0.01 µM / viability at 0.03 µM / viability at 0.1 µM / viability at 0.3 µM / viability at 1 µM / viability at 3 µM / viability at 10 µM / IC50: Homo sapiens; for viability at 0.001 µM / viability at 0.003 µM / viability at 0.01 µM / viability at 0.03 µM / viability at 0.1 µM / viability at 0.3 µM / viability at 1 µM / viability at 3 µM / viability at 10 µM: 72 h, HCC1954 spheroid, with cisplatin 10 μmol/L, 3 days; for viability at 0.001 µM: test substance 1.0 nM; for viability at 0.003 µM: test substance 3.0 nM; for viability at 0.01 µM: test substance 10.0 nM; for viability at 0.03 µM: test substance 30.0 nM; for viability at 0.1 µM: test substance 100.0 nM; for viability at 0.3 µM: test substance 300.0 nM; for viability at 1 µM: test substance 1000.0 nM; for viability at 3 µM: test substance 3000.0 nM; for viability at 10 µM: test substance 10000.0 nM; for IC50: in combination with cisplatin (10 μmol/L). The text has this:
On the combinational effect of the embodiment of the invention, the results of evaluation using a combination index (CI) which is a quantitative index of the combinational effect are shown. The CI can be calculated by the following equation according to Cancer Research, 2010, Vol. 70, pp. 440 to 446.
That is, in a case where the drugs to be used in combination are drug 1 and drug 2, the CI at a certain drug concentration is
CI={(cell viability in case of using drug 1 and drug 2 in combination)/100}/{[(cell viability in case of using drug 1)/100]×[(cell viability in case of using drug 2)/100]}
Evaluation of Antitumor Activity Against Breast Cancer-Derived Cell Line HCC1954 by Combined Use of Cisplatin in Spheroid Culture
Gemcitabine, cisplatin, and methanesulfonate of Compound A were used as test substances.
Gemcitabine hydrochloride (manufactured by Plantex Co., Ltd.) dissolved in dimethyl sulfoxide (DMSO) was used as gemcitabine. Cisplatin (Cat. #039-20091, manufactured by Wako Pure Chemical Industries, Ltd.) dissolved in DMSO was used as cisplatin.
The human breast cancer cell line HCC1954 cells were subcultured in RPMI-1640 medium supplemented with 10% serum (Cat. #10437-028, manufactured by Thermo Fisher Scientific Inc.). During this test, all cell cultures were carried out in a CO2 incubator (set to 37° C. and 5% CO2, saturated with water vapor). The culture was diluted with 10% serum-supplemented medium to a cell density of 5000 cells/well/100 μL, and seeded on an Ultra-Low Attachment 96-well plate (Cat. #7007, manufactured by Corning Incorporated). The cells were cultured for 4 days to form spheroids.
The methanesulfonate of Compound A and gemcitabine were dissolved in DMSO to prepare 10 mmol/L DMSO solutions thereof. The thus-prepared DMSO solutions were diluted sequentially with DMSO to prepare DMSO solutions having a final treatment concentration of 1000-fold dilution. Cisplatin was dissolved in DMSO to prepare a 100 mmol/L DMSO solution. The thus-prepared DMSO solution of cisplatin was diluted with DMSO to prepare a DMSO solution having a final treatment concentration of 5000-fold dilution. Further, the DMSO solution of cisplatin was diluted with 10% serum-supplemented medium to prepare a cisplatin-containing medium having a final treatment concentration of 10-fold dilution. The DMSO diluted solutions of Compound A and gemcitabine were diluted with the cisplatin-containing medium to prepare treatment liquids having a final treatment concentration of 10-fold dilution. Compound A and gemcitabine were used with a maximum concentration of 10 μmol/L at a common ratio of 1/3 and 9 concentrations in combination with cisplatin (10 μmol/L, 5 μmol/L).
10 μL of Compound A or gemcitabine diluted with the cisplatin-containing medium was added to each well. In addition, a group in which only a solvent containing no drug was added to wells in which cells were seeded (positive control), and a group in which only a solvent containing no drug was added to wells containing only a medium (negative control) were provided. All groups were set to n=3 well.
The cells were cultured for 3 days after the addition of the drug, and the cell viability was evaluated using a CellTiter Glo (registered trademark) Reagent (Cat. #G7570, manufactured by Promega Corporation) with the intracellular ATP level as an index. The concentration that inhibits cell viability by 50% (IC50 value) was calculated using XLFit software Ver.3 (registered trademark, manufactured by CTC Laboratory Systems Corporation).
The cell viability of each well was determined with the luminescence signal level of the negative control being 0% cell viability and the luminescence signal level of the positive control being 100% cell viability. The average value and standard deviation of the cell viability of each treatment group were calculated to prepare Table 11.

For experiment [3] the following is noted: orally administered to mice; cited from earlier work.

Consider `Nc1ccn([C@@H]2O[C@H](CO)[C@@H](O)C2(F)F)c(=O)n1` [Gemcitabine], for which, in experiment [1] (combination with cisplatin), the median survival time was 7.5 months and the response rate is given as 11.5%. For the same compound, in experiment [1] (combination with oxaliplatin), the median survival time is recorded as 5.7 months and the response rate is on record as 9%. Besides, in experiment [2], the CI was 0.60, the viability at 0.001 µM came out at 96%, the viability at 0.003 µM was 100% and the viability at 0.01 µM is 101%. For the same compound, in experiment [2], the viability at 0.03 µM was found to be 97%, the viability at 0.1 µM was 88%, the viability at 0.3 µM amounted to 73% and the viability at 1 µM is 60%. In experiment [2], the viability at 3 µM was found to be 52%, the viability at 10 µM is 50% and the IC50 was at least 10000 nM.
On to `Nc1ccn([C@@H]2S[C@H](CO)[C@@H](O)[C@@H]2F)c(=O)n1` [Compound A, 1-(2-deoxy-2-fluoro-4-thio-β-D-arabinofuranosyl)cytosine], for which the antitumor activity result in experiment [3] is recorded as “potent antitumor activity”. For the same compound, in experiment [2], the CI was 0.03, the viability at 0.001 µM stood at 92%, the viability at 0.003 µM is 94% and the viability at 0.01 µM amounted to 75%. Further, in experiment [2], the viability at 0.03 µM came to 65%, the viability at 0.1 µM came to 38%, the viability at 0.3 µM was found to be 15% and the viability at 1 µM amounted to 2%. Also, in experiment [2], the viability at 3 µM was 2%, the viability at 10 µM was determined as 2% and the IC50 was 49.4 nM.

By viability is commonly meant a read-out of living cells in per cent, often relative to untreated cells. One may read the IC50 as the concentration at which inhibition is half-maximal.
